In patent US9045468B2, “2,5-methano- and 2,5-ethano-tetrahydrobenzazepine derivatives and use thereof to block reuptake of norepinephrine, dopamine, and serotonin” (Albany Molecular Research, Inc., priority 2010, dated 2015):

Legend:
hSERT = hSERT (Homo sapiens (Human), UniProt P31645); assay: SERT radioligand binding assay ([125I]RTI-55, HEK-293 membranes); conditions: recombinant HEK-293 membranes, [125I]RTI-55; read-out: Binding Affinity (IC50, nM) SERT
Procedure: (§1) The medium was removed from the flasks and the cells rinsed with HBSS without Ca and without Mg. The cells were then incubated for 5-10 minutes in 10 mM Tris-Cl, pH 7.5, 5 mM EDTA before the cells were lifted with a combination of pipetting and scraping, as needed. The cell suspension was collected into centrifuge bottles and homogenized for 30 seconds with a Polytron homogenizer. The suspension was centrifuged for 30 minutes at 32,000×g, 4° C. The supernatant was decanted and the pellet resuspended and homogenized in 50 mM Tris-Cl, pH 7.5, 1 mM EDTA for 10 seconds. The suspension was then centrifuged again for 30 minutes at 32,000×g, 4° C. The supernatant was decanted and the pellet resuspended in 50 mM Tris-Cl, pH 7.5, 1 mM EDTA and briefly homogenized. A Bradford assay (Bio-rad) was performed and the membrane preparation diluted to 2 mg/ml with 50 mM Tris-Cl, pH 7.5, 1 mM EDTA. Aliquots were prepared, and then frozen and stored at −80° C.
Compounds were dissolved in 100% DMSO at a concentration 100 times the desired highest assay concentration, serially diluted 1:3 in 100% DMSO, and 0.4 μl/well of each solution was dispensed to a Nunc polypropylene, round bottom, 384-well plate. […] The contents of the assay plate were then transferred to a Millipore MultiscreenHTS GF/B filter plate which was pretreated with 0.5% PEI for at least one hour. The plate was vacuum filtered and washed with 7 washes of […] 50 mM Tris-Cl, pH 7.5, 120 mM NaCl, 5 mM KCl chilled to 4° C. The filtration and washing were completed in less than 90 seconds. The plates were air-dried overnight, 12 μl/well of MicroScint scintillation fluid added, and the plates counted in a Trilux.
(§2) Each plate was run in triplicate, and the concentration response curve thus generated was fit using the four-parameter dose response equation, Y=Bottom+(Top-Bottom)/(1+10^((Log IC50−X)*HillSlope)) in order to determine the IC50 value for each compound. The radioligand concentration chosen for each assay corresponds to the Kd concentration determined through saturation binding analysis for each assay.

hNET = hNET (Homo sapiens (Human), UniProt P23975); assay: NET radioligand binding assay ([3H]nisoxetine, HEK-293 membranes); conditions: recombinant HEK-293 membranes, [3H]nisoxetine; read-out: Binding Affinity (IC50, nM) NET
hNET, sequence (P23975 whole entry): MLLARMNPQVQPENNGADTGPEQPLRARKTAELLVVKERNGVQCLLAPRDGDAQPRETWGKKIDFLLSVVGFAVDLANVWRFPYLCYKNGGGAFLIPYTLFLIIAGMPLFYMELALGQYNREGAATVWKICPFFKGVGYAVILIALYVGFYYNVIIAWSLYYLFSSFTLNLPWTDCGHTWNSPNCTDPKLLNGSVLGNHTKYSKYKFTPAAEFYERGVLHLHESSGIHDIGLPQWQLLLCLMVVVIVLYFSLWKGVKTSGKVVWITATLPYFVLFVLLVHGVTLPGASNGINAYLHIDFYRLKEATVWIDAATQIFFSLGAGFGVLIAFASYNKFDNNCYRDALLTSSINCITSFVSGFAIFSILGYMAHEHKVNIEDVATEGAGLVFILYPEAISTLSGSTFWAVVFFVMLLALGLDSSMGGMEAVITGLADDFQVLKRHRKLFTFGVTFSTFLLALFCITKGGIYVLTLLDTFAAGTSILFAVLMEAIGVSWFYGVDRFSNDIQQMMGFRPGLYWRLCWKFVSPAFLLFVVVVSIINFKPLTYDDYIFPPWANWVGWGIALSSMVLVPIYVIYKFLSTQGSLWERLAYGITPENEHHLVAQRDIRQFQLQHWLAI
Procedure: as §1
Compounds were dissolved in 100% DMSO at a concentration 100 times the desired highest assay concentration, serially diluted 1:3 in 100% DMSO, and 1.0 μl/well of each solution was dispensed to a Nunc polypropylene, round bottom, 384-well plate. […] 50 μl/well of a 2× membrane preparation (0.4 mg/ml in 50 mM Tris-Cl, pH 7.5, 120 mM NaCl, 5 mM KCl) and 50 μl/well of a 2× radioligand solution (4 nM [^3H]nisoxetine in 50 mM Tris-Cl, pH 7.5, 120 mM NaCl, 5 mM KCl) were added to the well and the reaction incubated for 1 hour at room temperature. The contents of the assay plate were then transferred to a Millipore MultiscreenHTS GF/B filter plate which was pretreated with 0.5% PEI for at least one hour. The plate was vacuum filtered and washed with 7 washes of 100 μl/well 50 mM Tris-Cl, pH 7.5, 120 mM NaCl, 5 mM KCl chilled to 4° C. The filtration and washing were completed in less than 90 seconds. The plates were air-dried overnight, 12 μl/well of MicroScint scintillation fluid added, and the plates counted in a Trilux.
as §2

hDAT = hDAT (Homo sapiens (Human), UniProt Q01959); assay: DAT radioligand binding assay ([125I]RTI-55, HEK-293 membranes); conditions: recombinant HEK-293 membranes, [125I]RTI-55; read-out: Binding Affinity (IC50, nM) DAT
hDAT, sequence (Q01959 whole entry): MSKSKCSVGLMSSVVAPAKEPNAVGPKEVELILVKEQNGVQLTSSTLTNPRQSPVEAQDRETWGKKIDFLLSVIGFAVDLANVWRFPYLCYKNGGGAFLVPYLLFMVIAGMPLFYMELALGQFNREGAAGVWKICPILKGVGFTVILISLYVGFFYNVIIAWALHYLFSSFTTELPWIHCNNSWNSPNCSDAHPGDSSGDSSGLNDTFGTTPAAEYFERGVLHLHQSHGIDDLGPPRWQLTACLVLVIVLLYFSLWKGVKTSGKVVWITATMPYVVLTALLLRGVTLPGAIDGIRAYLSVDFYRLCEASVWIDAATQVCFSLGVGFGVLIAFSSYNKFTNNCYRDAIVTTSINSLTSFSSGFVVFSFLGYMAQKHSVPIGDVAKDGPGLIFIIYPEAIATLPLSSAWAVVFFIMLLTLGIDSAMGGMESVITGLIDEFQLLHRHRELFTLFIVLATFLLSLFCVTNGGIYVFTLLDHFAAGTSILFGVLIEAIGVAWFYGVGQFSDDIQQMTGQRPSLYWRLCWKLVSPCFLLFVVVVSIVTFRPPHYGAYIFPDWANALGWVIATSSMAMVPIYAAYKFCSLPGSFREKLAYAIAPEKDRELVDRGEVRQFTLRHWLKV
Procedure: as §1, with “Recombinant HEK-293 cells expressing either the hSERT, hDAT, or hNET proteins were harvested from T-175 flasks as follows. The medium” for “The medium”
Compounds were dissolved in 100% DMSO at a concentration 100 times the desired highest assay concentration, serially diluted 1:3 in 100% DMSO, and 0.4 μl/well of each solution was dispensed to a Nunc polypropylene, round bottom, 384-well plate. […] 20 ul/well of a 2× membrane preparation (12.5 μg/ml in 30 mM sodium phosphate buffer, pH 7.9 at 4° C.) and 20 μl/well of a 2× radioligand solution (250 pM [^125I]RTI-55 in 30 mM sodium phosphate buffer, pH 7.9 at 4° C.) were added to the well and the reaction incubated for 1 hour at room temperature. The contents of the assay plate were then transferred to a Millipore MultiscreenHTS GF/B filter plate which was pretreated with 0.5% PEI for at least one hour. The plate was vacuum-filtered and washed with 7 washes of 100 μl/well 50 mM Tris-Cl, pH 7.5, 120 mM NaCl, 5 mM KCl chilled to 4° C. The filtration and washing were completed in less than 90 seconds. The plates were air-dried overnight, 12 μl/well of MicroScint scintillation fluid added, and the plates counted in a Trilux.
as §2

hSERT, sequence (P31645 whole entry): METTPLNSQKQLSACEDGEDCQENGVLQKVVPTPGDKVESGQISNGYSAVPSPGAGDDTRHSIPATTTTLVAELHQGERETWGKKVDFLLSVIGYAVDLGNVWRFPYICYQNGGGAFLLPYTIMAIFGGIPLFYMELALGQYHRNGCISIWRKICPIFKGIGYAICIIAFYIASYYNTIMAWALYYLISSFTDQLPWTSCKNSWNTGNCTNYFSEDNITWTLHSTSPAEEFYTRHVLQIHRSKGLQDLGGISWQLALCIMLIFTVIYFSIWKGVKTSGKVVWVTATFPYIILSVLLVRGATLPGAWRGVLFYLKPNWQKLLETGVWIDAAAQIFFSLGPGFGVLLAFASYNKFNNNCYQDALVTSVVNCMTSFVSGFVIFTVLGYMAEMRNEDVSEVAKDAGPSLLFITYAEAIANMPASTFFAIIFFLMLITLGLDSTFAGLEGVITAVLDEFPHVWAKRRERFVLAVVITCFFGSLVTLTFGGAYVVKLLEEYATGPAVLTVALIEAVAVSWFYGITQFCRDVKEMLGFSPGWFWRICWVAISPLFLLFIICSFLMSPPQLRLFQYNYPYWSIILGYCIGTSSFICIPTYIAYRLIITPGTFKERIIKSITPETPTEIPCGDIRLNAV

SMILES | IC50 (hSERT) | IC50 (hNET) | IC50 (hDAT)
Clc1ccc(C23CCN(Cc4cc(-c5ccc6ncnn6c5)ccc42)C3)cc1 (single isomer, unassigned) [3(+), 8-([1,2,4]triazolo[1,5-a]pyridin-6-yl)-5-(4-chlorophenyl)-2,5-methano-2,3,4,5-tetrahydro-1H-benzo[c]azepine] | 9.4 nM | 817 nM | 340 nM
Clc1ccc(C23CCN(Cc4cc(-c5ccc6ncnn6c5)ccc42)C3)cc1 (single isomer, unassigned) [3(−), 8-([1,2,4]triazolo[1,5-a]pyridin-6-yl)-5-(4-chlorophenyl)-2,5-methano-2,3,4,5-tetrahydro-1H-benzo[c]azepine] | 5.2 nM | 443 nM | 141 nM
FC(F)Oc1ccc(-c2ccc3c(c2)CN2CCC3(c3ccc(Cl)cc3)C2)nn1 (single isomer, unassigned) [6(+), 5-(4-chlorophenyl)-8(6-(difluoromethoxy)pyridazin-3-yl)-2,5-methano-2,3,4,5-tetrahydro-1H-benzo[c]azepine] | 19.3 nM | 1170 nM | 1060 nM
Oc1ccc(-c2ccc3c(c2)CN2CCC3(c3ccc(Cl)cc3)C2)nn1 (single isomer, unassigned) [7(+), 6-(5-(4-chlorophenyl)-2,5-methano-2,3,4,5-tetrahydro-1H-benzo[c]azepin-8-yl)pyridazin-3-ol] | 62.5 nM | 674 nM | 148 nM
Clc1ccc(C23CCN(Cc4cc(-c5ccc6ncnn6c5)ccc42)C3)cc1Cl (single isomer, unassigned) [10(+), 8-([1,2,4]triazolo[1,5-a]pyridin-6-yl)-5-(3,4-dichlorophenyl)-2,5-methano-2,3,4,5-tetrahydro-1H-benzo[c]azepine] | 4.6 nM | 242 nM | 49.5 nM
Clc1ccc(C23CCN(Cc4cc(-c5ccc6ncnn6c5)ccc42)C3)cc1Cl (single isomer, unassigned) [10(−), 8-([1,2,4]triazolo[1,5-a]pyridin-6-yl)-5-(3,4-dichlorophenyl)-2,5-methano-2,3,4,5-tetrahydro-1H-benzo[c]azepine] | 5.6 nM | 73.7 nM | 37.5 nM
O=c1[nH]c2ccc(-c3ccc4c(c3)CN3CCC4(c4ccc(Cl)c(Cl)c4)C3)cc2o1 (single isomer, unassigned) [11(+), 8-(2-oxo-2,3-dihydrobenzo[d]oxazol-6-yl)-5-(3,4-dichlorophenyl)-2,5-methano-2,3,4,5-tetrahydro-1H-benzo[c]azepine] | 3.5 nM | 369 nM | 50 nM
O=c1[nH]c2ccc(-c3ccc4c(c3)CN3CCC4(c4ccc(Cl)c(Cl)c4)C3)cc2o1 (single isomer, unassigned) [11(−), 8-(2-oxo-2,3-dihydrobenzo[d]oxazol-6-yl)-5-(3,4-dichlorophenyl)-2,5-methano-2,3,4,5-tetrahydro-1H-benzo[c]azepine] | 3.9 nM | 92.4 nM | 19.6 nM
Fc1ccc(C23CCN(Cc4cc(-c5ccc6ncnn6c5)ccc42)C3)cc1Cl (single isomer, unassigned) [55(+), 8-([1,2,4]triazolo[1,5-a]pyridin-6-yl)-5-(3-chloro-4-fluorophenyl)-2,5-methano-2,3,4,5-tetrahydro-1H-benzo[c]azepine] | 18.6 nM | 956 nM | 121 nM
Fc1ccc(C23CCN(Cc4cc(-c5ccc6ncnn6c5)ccc42)C3)cc1Cl (single isomer, unassigned) [55(−), 8-([1,2,4]triazolo[1,5-a]pyridin-6-yl)-5-(3-chloro-4-fluorophenyl)-2,5-methano-2,3,4,5-tetrahydro-1H-benzo[c]azepine] | 2.2 nM | 175 nM | 35.3 nM
Fc1ccc(C23CCN(Cc4cc(-c5ccc(C(F)(F)F)nn5)ccc42)C3)cc1Cl (single isomer, unassigned) [56(+), 5-(3-chloro-4-fluorophenyl)-2,5-methano-8-(6-(trifluoromethyl)pyridazin-3-yl)-2,3,4,5-tetrahydro-1H-benzo[c]azepine] | 2.4 nM | 78.6 nM | 11.4 nM

Further lines, results first:

IC50 (hSERT) | IC50 (hNET) | IC50 (hDAT) | SMILES
74.2 nM | 675 nM | – | COc1ccc2c(c1)CN1CCC2(c2ccc(Cl)cc2)C1 (racemic) [Example 1, rac-5-(4-chlorophenyl)-8-methoxy-2,5-methano-2,3,4,5-tetrahydro-1H-benzo[c]azepine]
126 nM | – | – | Oc1ccc2c(c1)CN1CCC2(c2ccc(Cl)cc2)C1 (racemic) [Example 2, rac-5-(4-chlorophenyl)-2,5-methano-2,3,4,5-tetrahydro-1H-benzo[c]azepin-8-ol]
– | 70.5 nM | 603 nM | FC(F)(F)c1nnc2ccc(-c3ccc4c(c3)CN3CCC4(c4ccc(Cl)cc4)C3)cn12 (racemic) [Example 4, rac-5-(4-chlorophenyl)-2,5-methano-8-(3-(trifluoromethyl)-[1,2,4]triazolo[4,3-a]pyridin-6-yl)-2,3,4,5-tetrahydro-1H-benzo[c]azepine]
10.1 nM | 274 nM | 74.2 nM | FC(F)(F)c1ccc(-c2ccc3c(c2)CN2CCC3(c3ccc(Cl)cc3)C2)nn1 (racemic) [Example 5, rac-5-(4-chlorophenyl)-2,5-methano-8-(6-(trifluoromethyl)pyridazin-3-yl)-2,3,4,5-tetrahydro-1H-benzo[c]azepine]
16.6 nM | 1210 nM | 450 nM | N#Cc1ccc(-c2ccc3c(c2)CN2CCC3(c3ccc(Cl)cc3)C2)cc1 (racemic) [Example 8, rac-4-(5-(4-chlorophenyl)-2,5-methano-2,3,4,5-tetrahydro-1H-benzo[c]azepin-8-yl)benzonitrile]
23.5 nM | 303 nM | 435 nM | CS(=O)(=O)c1ccc(-c2ccc3c(c2)CN2CCC3(c3ccc(Cl)cc3)C2)cc1 (racemic) [Example 9, rac-5-(4-chlorophenyl)-2,5-methano-8-(4-(methylsulfonyl)phenyl)-2,3,4,5-tetrahydro-1H-benzo[c]azepine]
